From the supplement of paper PMC4932681

Key:
Test in all cases: viability inhibition at highest dose (% inhibition); higher = more growth inhibition
BT-474 Tam1 = conditions: 4-OH-tamoxifen in medium 1 µM; 72 h
Method: (§1)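 Percent inhibition of viability (CellTiter-Glo, 72 h) at the highest tested concentration (D5), normalised to DMSO (0%) and 100 µM benzethonium chloride (100%). Resistant lines and the 'in 1µM tamoxifen' arms were tested in 1 µM 4-OH-tamoxifen.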

BT-474 Tam2 = conditions: 4-OH-tamoxifen in medium 1 µM; 72 h
Method: as §1

BT-474 = conditions: 72 h
Method: as §1

MCF-7 Tam1 = conditions: 4-OH-tamoxifen in medium 1 µM; 72 h
Method: as §1

MCF-7 = conditions: 72 h
Method: as §1

T-47D Tam1 = conditions: 4-OH-tamoxifen in medium 1 µM; 72 h
Method: as §1

T-47D Tam2 = conditions: 4-OH-tamoxifen in medium 1 µM; 72 h
Method: as §1

T-47D = conditions: 72 h
Method: as §1

ZR-75-1 Tam1 = conditions: 4-OH-tamoxifen in medium 1 µM; 72 h
Method: as §1

ZR-75-1 Tam2 = conditions: 4-OH-tamoxifen in medium 1 µM; 72 h
Method: as §1

ZR-75-1 = conditions: 72 h
Method: as §1

| SMILES | viability inhibition at highest dose (BT-474 Tam1) | viability inhibition at highest dose (BT-474 Tam2) | viability inhibition at highest dose (BT-474; 4-OH-tamoxifen in medium 0 µM) | viability inhibition at highest dose (BT-474; 4-OH-tamoxifen in medium 1 µM) | viability inhibition at highest dose (MCF-7 Tam1) | viability inhibition at highest dose (MCF-7; 4-OH-tamoxifen in medium 0 µM) | viability inhibition at highest dose (MCF-7; 4-OH-tamoxifen in medium 1 µM) | viability inhibition at highest dose (T-47D Tam1) | viability inhibition at highest dose (T-47D Tam2) | viability inhibition at highest dose (T-47D; 4-OH-tamoxifen in medium 0 µM) | viability inhibition at highest dose (T-47D; 4-OH-tamoxifen in medium 1 µM) | viability inhibition at highest dose (ZR-75-1 Tam1) | viability inhibition at highest dose (ZR-75-1 Tam2) | viability inhibition at highest dose (ZR-75-1; 4-OH-tamoxifen in medium 0 µM) | viability inhibition at highest dose (ZR-75-1; 4-OH-tamoxifen in medium 1 µM) |
| --- | --- | --- | --- | --- | --- | --- | --- | --- | --- | --- | --- | --- | --- | --- | --- |
| CCCCC/C=C/C=C1/C(=O)C=C[C@@H]1C/C=C\CCCC(=O)O [15D-PGJ2] (drug 800 nM) | -6.35 | -6.87 | -7.22 | -14.5 | -5.28 | -3.98 | -2.34 | 0.0444 | 19.6 | -18.6 | -6.02 | -1.15 | -2.77 | -12.7 | 5.41 |
| Cc1sc2c(c1C)C(c1ccc(Cl)cc1)=N[C@@H](CC(=O)OC(C)(C)C)c1nnc(C)n1-2 [(+)JQ1] (drug 10000 nM) | 75 | 76.6 | 31.3 | 68.4 | 15.2 | 52.8 | 59.6 | 46.9 | 29.1 | 34.3 | 16.5 | 43.3 | 37.8 | 29.8 | 30.9 |
| COc1ccc(S(=O)(=O)Nc2cccnc2Nc2ccc(O)cc2)cc1 [ABT-751] (drug 10000 nM) | 64.7 | 54.2 | 42.6 | 73.1 | 1.63 | 50.3 | 44.6 | 58.6 | 38.3 | -0.891 | 2.69 | 4.33 | 18.6 | 36.3 | 14.9 |
| O=C(Nc1c[nH]nc1-c1nc2ccc(CN3CCOCC3)cc2[nH]1)NC1CC1 [AT9283] (drug 1000 nM) | 1.94 | 11.4 | -19.7 | -13.2 | -5.75 | -25.8 | -11 | -7.78 | 2.08 | -42.6 | -23.3 | -22.4 | -19.2 | -44.4 | -22.6 |
| COc1cc(OC2CCN(C)CC2)ccc1Nc1ncc2c(n1)n(C1CCCC1)c(=O)n2C [AZ 3146] (drug 10000 nM) | 74.5 | 25.9 | 9.21 | 77.2 | 11.7 | 24.5 | 15 | 20.1 | 26.5 | 27.1 | 14.1 | 19.6 | 24 | 20.8 | 22.9 |
| Cc1cc(Nc2nc(N[C@@H](C)c3ncc(F)cn3)ncc2Cl)[nH]n1 [AZD1480] (drug 1000 nM) | 3.08 | -2.54 | -2.51 | 8 | 1.6 | 13.1 | 6.46 | 2.99 | 3.94 | -12.1 | -7.24 | -2.1 | -3.72 | -6.08 | -11.4 |
| COc1cc(CCc2cc(NC(=O)c3ccc(N4CC(C)NC(C)C4)cc3)n[nH]2)cc(OC)c1 (stereo not given) [AZD4547] (drug 1000 nM) | 8.22 | -5.95 | -7.84 | 5.15 | -1.84 | -4.05 | 2.4 | -9.97 | -1.01 | -22.2 | 8.39 | 1.86 | -8.6 | -14.5 | -5.83 |
| NC(=O)Nc1cc(-c2cccc(F)c2)sc1C(=O)N[C@H]1CCCNC1 [AZD7762] (drug 1000 nM) | -13.6 | -14.7 | -6.57 | -6.16 | 2.31 | 35.5 | 5.25 | 18.2 | 29.3 | -14.8 | 13.8 | -10.3 | -5.84 | 10.5 | -0.00544 |
| COc1ccc(-c2ccc3c(N4CCOC[C@@H]4C)nc(N4CCOC[C@@H]4C)nc3n2)cc1CO [AZD8055] (drug 10000 nM) | 80.1 | 56.1 | 43.2 | 77.2 | 34.5 | 72.4 | 56.5 | 54.4 | 58.3 | 61 | 55.9 | 57.3 | 61 | 60 | 50.2 |
| C[C@]12CC[C@H](O)CC1=CC[C@@H]1[C@@H]2CC[C@]2(C)C(c3cccnc3)=CC[C@@H]12 [Abiraterone (CB-7598)] (drug 5000 nM) | 6.31 | -1 | -6.23 | -14.7 | -8.38 | -13.6 | -10.3 | -5.53 | -1.44 | -18.4 | -16.6 | -0.517 | -3.39 | -6.86 | -7.24 |
| CN(C)C/C=C/C(=O)Nc1cc2c(Nc3ccc(F)c(Cl)c3)ncnc2cc1O[C@H]1CCOC1 [Afatinib (BIBW2992, Tovok)] (drug 1000 nM) | 95.9 | 95.5 | 82.2 | 93.8 | -0.193 | -11.5 | 19 | 19.8 | 16.6 | 0.755 | -3.23 | 0.501 | -3.77 | -5.16 | 1.48 |
| COc1cc(Nc2ncc3c(n2)-c2ccc(Cl)cc2C(c2c(F)cccc2OC)=NC3)ccc1C(=O)O [Alisertib (MLN8237)] (drug 10000 nM) | 13.6 | -5.31 | 11.6 | 34.7 | 16.2 | 17.2 | 7.64 | 38.9 | 41 | 27.3 | 28.5 | -1.42 | 4.01 | -2.57 | 9.24 |
